Laboratory results from US7867983B2, “Methods to protect skeletal muscle against injury” (The University of Connecticut, priority 2007, dated 2011).

What was measured:
[1] = system: skeletal muscle ischemia/reperfusion injury; assay: Mouse hindlimb ischemia and reperfusion model, Evans Blue dye staining, PLC β2/β3-null mice; assay type: in vivo; conditions: agonist alone i.p. before ischemia/reperfusion, mean±SE, PBS 23.4%±4%
Description: Mouse Hindlimb Ischemia and Reperfusion Model: After 2.5- to 3-month-old wild-type (WT; C57BL6 strain) or PLC β2/β3 knockout mice (in C57BL6 background), each weighing about 23-25 g, were sedated with anesthetic (pentobarbital 50 mg/kg was given by intraperitoneal [i.p.] injection), their right or left hindlimbs (used randomly) were elevated briefly to minimize retained blood before being subjected to ischemia. Ischemia was induced by placement of a constrictor band (Latex O-Rings, Miltex Instruments, York, Pa.) above the greater trochanter with a McGiveney Hemorrhoidal Ligator (7 in long; Miltex). After 90 minutes of warm ischemia at 37° C., the constrictor was removed to allow reperfusion for 24 hours. The mice were continuously maintained on a 37° C. warming pad (Physitemp Instruments Inc, Clifton, N.J.) during the reperfusion. […]
Quantification of Skeletal Muscle Injury: Evans Blue dye (EBD), prepared as a 1% wt/vol solution to yielding 1 mg of EBD/10 g body weight), was given via a separate i.p. injection 2.5 hours before the induction of ischemia. EBD stained only injured muscle and EBD-positive cells were quantified. […] Each field was counted at 20× magnification and their images captured via the two filters for quantification of muscle injury as follows. […] The ImageProPlus Program (version 5.0, Media Cybernetics, Inc, Silver Spring, Md.) was used for the quantitative determination. The percentage of EBD-positive areas was calculated by dividing the area of EBD staining by the total muscle cells, a quantity defined as the total area stained by anti-skeletal muscle actin antibodies and was identical to the total area in each field minus the area not occupied by any cell. […] Serum creatine kinase (CK) activity was measured with a previously described procedure. […] Both are established and accepted methods to quantify skeletal muscle injury. […]

[2] = system: exercise-induced skeletal muscle injury; assay: 15% downhill treadmill exercise-induced skeletal muscle injury, beta-sarcoglycan-null mice (limb-girdle muscular dystrophy model); assay type: in vivo, mouse (beta-sarcoglycan-null); conditions: beta-sarcoglycan-null mice treated, then exercised
Excerpt: (§1) Wild type (WT), beta-sarcoglycan-deficient, and PLCβ2/β3-null mice were all 8-10 weeks old and have similar body weights. Beta-sarcoglycan-null mice have been developed as a mouse model of limb-girdle muscular dystrophy. PLCβ2/β3-null mice have been used as a model to determine the physiologic role of these enzyme isoforms in mediating the effect of various adenosine receptor subtypes. The 15% downhill treadmill exercise is an established method to cause exertion-related skeletal muscle injury in rodents and has been used to gauge the success of therapy aimed at reducing skeletal muscle injury in mouse models of muscular dystrophy. Mice were exercised to exhaustion and for similar amount of time. […] Thus, only serum CK activity was used to quantify the extent of skeletal muscle injury in these normal WT mice. In the beta-sarcoglycan-null mice, there was already a significant level of skeletal muscle damage at baseline (in the absence of imposed physical exercise, EBD-positive area was 9.7±2.0%, n=28 mice, SE; serum CK was 2363±310, U/L, n=30 mice, SE). Both EBD staining and serum CK were used to quantify the extent of skeletal muscle injury.
Beta-sarcoglycan-null mice were used as a model of Limb-Girdle Muscular Dystrophy. […] The extent of skeletal muscle injury was determined by (FIG. 10) serum CK level and (FIG. 11) percentage of EBD-stained area. […]

[3] = system: skeletal muscle ischemia/reperfusion injury; assay: Mouse hindlimb ischemia and reperfusion model, Evans Blue dye staining of gastrocnemius muscle, wild-type mice; assay type: in vivo, mouse (C57BL6 wild-type); conditions: WT mice; for EBD-positive area, agonist plus DPCPX: A1 antagonist DPCPX 0.2 mg/kg i.p. 30 min before agonist; for EBD-positive area, agonist plus MRS1191: A3 antagonist MRS1191 0.05 mg/kg i.p. 30 min before agonist; for EBD-positive area: ligand alone i.p. 2 h before 90 min ischemia, PBS vehicle 28%±6%
Description: Mouse Hindlimb Ischemia and Reperfusion Model: After 2.5- to 3-month-old wild-type (WT; C57BL6 strain) or PLC β2/β3 knockout mice (in C57BL6 background), each weighing about 23-25 g, were sedated with anesthetic (pentobarbital 50 mg/kg was given by intraperitoneal [i.p.] injection), their right or left hindlimbs (used randomly) were elevated briefly to minimize retained blood before being subjected to ischemia. Ischemia was induced by placement of a constrictor band (Latex O-Rings, Miltex Instruments, York, Pa.) above the greater trochanter with a McGiveney Hemorrhoidal Ligator (7 in long; Miltex). After 90 minutes of warm ischemia at 37° C., the constrictor was removed to allow reperfusion for 24 hours. The mice were continuously maintained on a 37° C. warming pad (Physitemp Instruments Inc, Clifton, N.J.) during the reperfusion. After the mice were killed by anesthetic overdose, the gastrocnemius muscle was quickly frozen, cut into three slices separated by 2-3 mm, and embedded in Shandon Cryomatrix (polyvinyl alcohol 10%, polyethylene glycol 4%; Anatomical Pathology U.S.A., Pittsburgh, Pa.). Each slice was processed as one 10 μm section on a Thermo Electron/Shandon Cryotome (Anatomical Pathology), fixed in ice-cold acetone, air dried, and washed in phosphate-buffered saline (PBS). Each 10 μm section had seven fields. Gastrocnemius was used because of its high proportion of fast-twitch muscle, which is prone to ischemia and reperfusion injury.
Quantification of Skeletal Muscle Injury: Evans Blue dye (EBD), prepared as a 1% wt/vol solution to yielding 1 mg of EBD/10 g body weight), was given via a separate i.p. injection 2.5 hours before the induction of ischemia. EBD stained only injured muscle and EBD-positive cells were quantified. The percent EBD-positive cells in each field was averaged with those from all seven fields within one 10 μm section. The averaged fraction of EBD-positive cells in each 10 μm section was similar among the three sections. Each 10 μm section was also stained with rabbit polyclonal anti-skeletal muscle actin antibodies (ab15265; Abcam Inc, Cambridge, Mass.) and goat polyclonal anti-rabbit IgG conjugated with fluorescein isothiocyanate. Sections were mounted, and their cross sections were viewed with fluorescent microscopy (Evans Blue dye [EBD]-positive cells via a DM580 band pass filter 510-560 nm with emission of 590 nm; fluorescein isothiocyanate cells via a DM510 filter of 450-490 nm with emission at 520 nm). Each field was counted at 20× magnification and their images captured via the two filters for quantification of muscle injury as follows. Images were acquired and stored as JPEG files with a Macrofire camera (Macrofire 1.0, Optronics, Goleta, Calif.). The ImageProPlus Program (version 5.0, Media Cybernetics, Inc, Silver Spring, Md.) was used for the quantitative determination. The percentage of EBD-positive areas was calculated by dividing the area of EBD staining by the total muscle cells, a quantity defined as the total area stained by anti-skeletal muscle actin antibodies and was identical to the total area in each field minus the area not occupied by any cell. The actin-stained area included EBD-positive area, as shown in superimposed EBD- and actin antibody-stained images. Serum creatine kinase (CK) activity was measured with a previously described procedure. The fraction of skeletal muscle staining positive for EBD represented a direct determination of the muscle that was injured, and the serum CK level provided a circulating index of the extent of skeletal muscle injury. Both are established and accepted methods to quantify skeletal muscle injury.
Protocol for Administration of Adenosine Receptor Agonist and Antagonist. […]

[4] = system: exercise-induced skeletal muscle injury; assay: 15% downhill treadmill exercise-induced skeletal muscle injury, wild-type mice; assay type: in vivo, mouse (wild type); conditions: wild-type mice injected with agonist, then exercised; P<0.05 vs vehicle
Excerpt: as §1
Adult wild-type mice were injected with the A3 receptor agonist Cl-IBMECA. They were then subjected to exercise, and their skeletal muscle injuries were quantified using serum CK was used as a marker of muscle injury. […]

[5] = system: exercise-induced skeletal muscle injury; assay: 15% downhill treadmill exercise-induced skeletal muscle injury, PLCβ2/β3-null mice; assay type: in vivo, mouse (PLCβ2/β3-null); conditions: PLCβ2/β3-null mice treated, then exercised; P>0.1 vs PBS
Excerpt: as §1
PLCβ2/β3-null mice were used as a model to determine the role of PLCβ2/β3 in mediating the protective effect on exercise-induced injury by Cl-IBMECA. […] Serum CK levels were used to quantify the extent of skeletal muscle injury. […]

[6] = 90 min ischemia, 24 h reperfusion, mean±SE

Compound	EBD-positive area [1]	EBD-positive area, agonist plus DPCPX [3, 6]	EBD-positive area, agonist plus MRS1191 [3, 6]	EBD-positive area ([3]; 24 h reperfusion, mean±SE)	also measured
CNC(=O)[C@H]1O[C@@H](n2cnc3c(NCc4cccc(I)c4)nc(Cl)nc32)[C@H](O)[C@@H]1O [Cl-IBMECA, 2-chloro-N^6-(3-iodobenzyl)adenosine-5′-N-methyluronamide]	22%±3.6%	4%±1.6%	21.5%±3.5%	5.4%±2.6%	serum CK level vs. vehicle after exercise ([2]; P=0.0066 vs vehicle): reduction in the serum CK level; percentage of EBD-positive area vs. vehicle after exercise ([2]; P=0.03 vs vehicle): reduced the percentage of EBD-positive area; serum CK vs. vehicle after exercise [4]: reduction in the serum CK; serum CK level vs. PBS after exercise [5]: unable to induce a reduction in the serum CK level
CCOC(=O)C1=C(C)NC(c2ccccc2)=C(C(=O)OCc2ccccc2)C1C#Cc1ccccc1 (racemic) [MRS1191, 3-ethyl 5-benzyl-2-methyl-6-phenyl-4-phenylethynyl-1,4-(±)-dihydropyridine-3,5-dicarboxylate]	–	–	–	23%±4.4%	–
CCCn1c(=O)c2[nH]c(C3CCCC3)nc2n(CCC)c1=O [DPCPX]	–	–	–	19.3%±4.4%	–
CCNC(=O)[C@H]1O[C@@H](n2cnc3c(N)nc(NCCc4ccc(CCC(=O)O)cc4)nc32)[C@H](O)[C@@H]1O [CGS21680, 2-p-(2-Carboxyethyl)phenethylamino-5′-N-ethylcarboxamidoadenosine]	4%±1.1%	14.7%±2.3%	2.4%±1.25%	6.6%±3.5%	EBD-positive area, agonist plus SCH 442416 ([3]; A2A antagonist SCH 442416 0.017 mg/kg i.p. 30 min before agonist, 90 min ischemia, 24 h reperfusion, mean±SE): 26%±4%
C[C@H](Cc1ccccc1)Nc1ncnc2c1ncn2[C@@H]1O[C@H](CO)[C@@H](O)[C@H]1O [R-PIA]	–	–	–	–	extent of injury (EBD staining), result in words ([3]; given prior to ischemia and reperfusion, 0.05 mg/kg i.p.): significant reduction in the extent of injury
OC[C@H]1O[C@@H](n2cnc3c(NC4CCCC4)nc(Cl)nc32)[C@H](O)[C@@H]1O [CCPA, 2-chloro-N^6-cyclopentyladenosine]	8.5%±2.5%	22%±3.3%	12.2%±2.4%	10.8%±2%	–
